Literature values, collected in patent publication US9029598B2 (Colgate-Palmolive Company, priority 2009, dated 2015).

Conditions: room temperature, natural partial pressure (3.5×10^−4 atmosphere)

maximum concentration of carbon dioxide in water: 12 µM
SMILES: O=C=O [Carbon dioxide]
